In patent US20030044399A1, “Method of treatment” (SmithKline Beecham Corporation, priority 1998, published 2003):
Where two headings read alike, the source gives them in different places.

Key:
Cruzain = Cruzain (Trypanosoma cruzi, UniProt P25779); assay: Cysteine protease inhibition, progress curve method, cruzain; type: biochemical; conditions: 4 uM Ac-Lys-Glu-Lys-Leu-Arg-AMC, 100 mM Na acetate pH 5.5, 5 mM cysteine; read-out: Cruzain Ki
How it was run: (§1)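 Kinetic constants from AMC-release progress curves over 20–30 min at ambient temperature in 100 mM Na acetate pH 5.5, 5 mM cysteine, 2% DMSO; enzyme added last to inhibitor plus substrate. Substrates: 10 uM Cbz-Phe-Arg-AMC (Leishmania, Schistosoma), 10 uM Cbz-Leu-Arg-AMC (falcipain), 4 uM Ac-Lys-Glu-Lys-Leu-Arg-AMC (cruzain). Ki,app from linear curves; time-dependent inhibition as kobs/[I].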

Leishmania B = molecular target: T1, Leishmania B (UniProt P90627); assay: Cysteine protease inhibition, progress curve method, leishmania B; type: biochemical, Leishmania spp; conditions: read-out: Leishmania B Ki nM; 10 uM Cbz-Phe-Arg-AMC, 100 mM Na acetate pH 5.5, 5 mM cysteine
T1 sequence (P90627 1-340): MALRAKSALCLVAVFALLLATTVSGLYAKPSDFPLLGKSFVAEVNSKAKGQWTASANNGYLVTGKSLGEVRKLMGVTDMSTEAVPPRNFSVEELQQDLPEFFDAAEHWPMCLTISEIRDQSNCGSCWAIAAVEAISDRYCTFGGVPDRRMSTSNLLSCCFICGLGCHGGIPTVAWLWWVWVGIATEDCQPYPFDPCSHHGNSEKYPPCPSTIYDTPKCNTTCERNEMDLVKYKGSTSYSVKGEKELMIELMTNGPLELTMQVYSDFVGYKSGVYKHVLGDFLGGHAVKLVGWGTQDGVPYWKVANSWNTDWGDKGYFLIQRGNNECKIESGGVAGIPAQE
Description: (§2) Standard assay conditions for the determination of kinetic constants used 10 uM fluorogenic peptide substrate, Cbz-Phe-Arg-AMC for the cysteine proteases from Leishmania spp and Schistosoma Mansoni, Cbz-Leu-Arg-AMC for the cysteine proteases from Plasmodium falciparum and Trypanosoma brucei rhodesiensi, and Ac-Lys-Glu-Lys-Leu-Arg-AMC (4 uM final substrate concentration) for the cysteine protease from Trypoanosoma cruzi, and were determined in 100 mM Na acetate at pH 5.5 containing 5 mM cysteine. Stock substrate solutions were prepared at concentrations of […] in DMSO with 10 uM (4 uM for Ac-Lys-Glu-Lys-Leu-Arg-AMC) final substrate concentration in the assays. The final DMSO concentration was 2% and the final volume was 100 uL. All assays were conducted at ambient temperature. Product progress curves were generated over 20 to 30 minutes following formation of AMC product.
(§3) Potential inhibitors were evaluated using the progress curve method. Assays were carried out in the presence of variable concentrations of test compound. Reactions were initiated by addition of enzyme to buffered solutions of inhibitor and substrate. Data analysis was conducted according to one of two procedures depending on the appearance of the progress curves in the presence of inhibitors. For those compounds whose progress curves were linear, apparent inhibition constants (Ki,app) were calculated according to equation 1 (Brandt et al., Biochemitsry, 1989, 28, 140):
(§4) v=VmA/[Ka(1+I/Ki,app)+A] (1)
(§5) Where v is the velocity of the reaction with maximal velocity Vm, A is the concentration of substrate with Michaelis constant of Ka, and I is the concentration of inhibitor.
(§6) [AMC]=vsst+(v0−vss)[1−exp (−kobst)]/kobs (2)
(§7) Where [AMC] is the concentration of product formed over time t, v0 is the initial reaction velocity and vss is the final steady state rate. Values for kobs were then analyzed as a linear function of inhibitor concentration to generate an apparent second order rate constant (kobs/inhibitor concentration or kobs/[I]) describing the time-dependent inhibition. A complete discussion of this kinetic treatment has been fully described (Morrison et al., Adv. Enzymol. Relat. Areas Mol. Biol., 1988, 61, 201).
(§8) Exemplary inhibition data for the compounds used in the present method collected in accordance with the above-described procedure are listed in Table I.

Schisto B 1 = Schisto B 1 (Schistosoma mansoni, UniProt P25792); assay: Cysteine protease inhibition, progress curve method, schistosoma B 1; type: biochemical
Chain of Schisto B 1 (P25792 89-340): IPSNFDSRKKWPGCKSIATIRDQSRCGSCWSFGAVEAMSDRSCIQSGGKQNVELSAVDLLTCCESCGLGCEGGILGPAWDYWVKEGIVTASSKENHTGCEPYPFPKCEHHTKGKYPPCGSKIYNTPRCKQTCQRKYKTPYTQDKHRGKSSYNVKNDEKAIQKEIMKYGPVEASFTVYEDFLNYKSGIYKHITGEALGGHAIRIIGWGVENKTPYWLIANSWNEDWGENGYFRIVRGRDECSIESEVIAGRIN
Description: as §2, §3, §4, §5, §6, §7, §8

Schisto B 2 = Schisto B 2 (Schistosoma mansoni, UniProt Q95PM1); assay: Cysteine protease inhibition, progress curve method, schistosoma B 2; type: biochemical; conditions: 10 uM Cbz-Phe-Arg-AMC, 100 mM Na acetate pH 5.5, 5 mM cysteine
Chain of Schisto B 2 (Q95PM1 entry or part of it): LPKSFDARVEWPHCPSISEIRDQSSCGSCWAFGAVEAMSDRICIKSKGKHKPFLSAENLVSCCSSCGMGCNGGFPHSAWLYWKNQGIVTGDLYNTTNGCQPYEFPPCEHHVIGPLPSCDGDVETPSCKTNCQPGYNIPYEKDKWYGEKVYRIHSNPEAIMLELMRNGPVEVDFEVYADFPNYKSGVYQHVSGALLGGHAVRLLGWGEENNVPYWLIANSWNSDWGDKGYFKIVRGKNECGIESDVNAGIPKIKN
Description: as §2, §3, §4, §5, §6, §7, §8

Leishmania L = Leishmania L (Leishmania major, UniProt P90628); assay: Cysteine protease inhibition, progress curve method, leishmania L; type: biochemical, Leishmania spp; conditions: 10 uM Cbz-Phe-Arg-AMC, 100 mM Na acetate pH 5.5, 5 mM cysteine
Chain of Leishmania L (P90628 126-443): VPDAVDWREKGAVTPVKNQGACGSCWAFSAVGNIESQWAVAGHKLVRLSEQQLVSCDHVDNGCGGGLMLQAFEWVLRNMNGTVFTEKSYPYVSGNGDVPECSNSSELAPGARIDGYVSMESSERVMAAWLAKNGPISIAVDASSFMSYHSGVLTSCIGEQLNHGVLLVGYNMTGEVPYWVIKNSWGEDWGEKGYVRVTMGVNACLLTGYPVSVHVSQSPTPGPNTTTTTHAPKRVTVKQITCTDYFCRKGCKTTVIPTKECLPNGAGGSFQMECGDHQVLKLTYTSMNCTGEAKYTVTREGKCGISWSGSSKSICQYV
Description: as §2, with “Product progress curves were generated over 20 to 30 minutes following formation of AMC product.” left out
Potential inhibitors were evaluated using the progress curve method. […] For those compounds whose progress curves were linear, apparent inhibition constants (Ki,app) were calculated according to equation 1 (Brandt et al., Biochemitsry, 1989, 28, 140): […]
as §7, with “A complete discussion of this kinetic treatment has been fully described (Morrison et al., Adv. Enzymol. Relat. Areas Mol. Biol., 1988, 61, 201).” left out

Rhodazain = Rhodazain (Trypanosoma brucei rhodesiense, UniProt Q95PM0); assay: Cysteine protease inhibition, progress curve method, rhodazain; type: biochemical, Trypanosoma brucei rhodesiensi; conditions: Rhodazain Ki (nM), 10 uM Cbz-Leu-Arg-AMC, 100 mM Na acetate pH 5.5, 5 mM cysteine
Chain of Rhodazain (Q95PM0 entry or part of it): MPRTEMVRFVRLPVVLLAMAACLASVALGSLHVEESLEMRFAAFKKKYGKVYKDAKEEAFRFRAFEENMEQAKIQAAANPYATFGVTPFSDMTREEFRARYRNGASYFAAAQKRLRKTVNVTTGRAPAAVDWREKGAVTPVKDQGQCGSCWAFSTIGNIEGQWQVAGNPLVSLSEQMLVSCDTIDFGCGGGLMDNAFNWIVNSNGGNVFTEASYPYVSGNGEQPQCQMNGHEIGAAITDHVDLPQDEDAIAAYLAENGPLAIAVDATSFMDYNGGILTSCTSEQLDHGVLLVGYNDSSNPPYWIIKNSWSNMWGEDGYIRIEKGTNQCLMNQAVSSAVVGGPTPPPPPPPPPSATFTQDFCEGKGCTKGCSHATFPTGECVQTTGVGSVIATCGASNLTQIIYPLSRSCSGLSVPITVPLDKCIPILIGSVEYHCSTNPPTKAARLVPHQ

Falcipain 2 = Falcipain 2 (Plasmodium falciparum, UniProt Q8I6U4); assay: Cysteine protease inhibition, progress curve method, falcipain; type: biochemical; conditions: 10 uM Cbz-Leu-Arg-AMC, 100 mM Na acetate pH 5.5, 5 mM cysteine
Chain of Falcipain 2 (Q8I6U4 244-484): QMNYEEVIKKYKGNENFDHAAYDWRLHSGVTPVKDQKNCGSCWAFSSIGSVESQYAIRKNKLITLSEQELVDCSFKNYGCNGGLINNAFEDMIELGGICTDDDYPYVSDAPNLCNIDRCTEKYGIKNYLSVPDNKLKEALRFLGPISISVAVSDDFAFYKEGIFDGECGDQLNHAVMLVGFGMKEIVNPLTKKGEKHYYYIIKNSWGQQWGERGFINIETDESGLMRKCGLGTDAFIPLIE
How it was run: as §1

[1] = 10 uM Cbz-Phe-Arg-AMC, 100 mM Na acetate pH 5.5, 5 mM cysteine, read-out: Schisto B 1 Ki

Chain of Cruzain (P25779 123-337): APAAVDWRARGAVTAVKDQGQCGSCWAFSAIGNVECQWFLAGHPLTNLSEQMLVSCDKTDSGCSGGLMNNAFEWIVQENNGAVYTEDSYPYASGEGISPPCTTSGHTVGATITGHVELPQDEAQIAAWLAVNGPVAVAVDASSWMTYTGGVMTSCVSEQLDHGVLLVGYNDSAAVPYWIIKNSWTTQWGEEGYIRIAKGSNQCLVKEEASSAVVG

Row | Compound | Ki (Cruzain) | Ki (Leishmania B) | Ki (Schisto B 1; [1]) | Ki (Schisto B 2) | Ki (Leishmania L) | Ki (Rhodazain) | Ki (Falcipain 2) | Ki (Schisto B 1)
1 | CC(C)C[C@H](NC(=O)c1cc2ccccc2s1)C(=O)N[C@@H]1CCCN(S(=O)(=O)c2ccc(F)cc2)CC1=O [Example 108, Benzo[b]thiophene-2-carboxylic acid-{(S)-1-[1-(4-fluoro-benzenesulfonyl)-3-oxo-azepan-4-ylcarbamoyl]-3-methyl-butyl}-amide] | 20 nM | 9.4 nM | 34 nM | 110 nM | – | – | – | –
2 | CC(C)C[C@H](NC(=O)c1cc2ccccc2o1)C(=O)NC1CCCN(Cc2ccc3ccccc3n2)CC1=O (stereo partly drawn) [Example 212, Benzofuran-2-carboxylic acid [(S)-3-methyl-1-[3-oxo-1-quinolin-2-ylmethyl-azepan-4-ylcarbamoyl]-butyl}-amide] | 7.7 nM | 1.7 nM | – | – | – | – | – | –
3 | Naphthlene-2-carboxylic acid ((S)-3-methyl-1-{3-oxo-1-[2-(3-pyridin-2-yl-phenyl)ethyl]-azepan-4-ylcarbamoyl}-butyl)amide [Example 10] | – | – | – | – | 82 nM | – | – | –
4 | CC(C)CC(NC(=O)c1cc2ccccc2o1)C(=O)NC1CC[C@@H](C)N(S(=O)(=O)c2ccccn2)CC1=O (single isomer, unassigned) [Example 182] | – | 4.3 nM | 61 nM | 45 nM | – | 1.1 nM | – | –
5 | CC(C)C[C@H](NC(=O)c1cc2ccccc2s1)C(=O)N[C@H]1CCCN(S(=O)(=O)c2ccc(Cl)cc2)CC1=O [Example 135, Benzo[b]thiophene-2-carboxylic acid-{(S)-1-[1-(4-chloro-benzenesulfonyl)-3-oxo-azepan-4-ylcarbamoyl]-3-methyl-butyl}-amide] | – | 8 nM | 75 nM | 270 nM | – | – | – | –
6 | O=C(N[C@@H](Cc1ccccc1)C(=O)NC1CCCN(S(=O)(=O)c2ccccn2)CC1=O)c1cccc2cccnc12 (single isomer, unassigned) [Example 189] | – | 3.9 nM | – | – | – | 3.1 nM | – | –
7 | O=C(N[C@@H](Cc1ccc2ccccc2c1)C(=O)NC1CCCN(S(=O)(=O)c2ccccn2)CC1=O)c1cccc2cccnc12 (stereo partly drawn) [Example 174, Quinoline-8-carboxylic acid {(S)-2-naphthalen-2-yl-1-[3-oxo-1-(pyridine-2-sulfonyl)-azepan-4-ylcarbamoyl)-ethyl]-amide] | – | 1.7 nM | 27 nM | 8.3 nM | – | 4.7 nM | – | –
8 | O=C(N[C@@H](Cc1ccc2ccccc2c1)C(=O)NC1CCCN(S(=O)(=O)c2ccccn2)CC1=O)c1cccc2ccccc12 (stereo partly drawn) [Example 175, Naphthalene-1-carboxylic acid {(S)-2-naphthalen-2-yl-1-[3-oxo-1-(pyridine-2-sulfonyl)-azepan-4-ylcarbamoyl)-ethyl]-amide] | – | 1.7 nM | 37 nM | 21 nM | – | 5.6 nM | – | –
9 | Cc1c(C(=O)N[C@@H](CC(C)C)C(=O)NC2CCCN(Cc3ccc4ccccc4n3)CC2=O)oc2ccccc12 (stereo partly drawn) [Example 213, 3-Methyl-benzofuran-2-carboxylic acid [(S)-3-methyl-1-[3-oxo-1-quinolin-2-ylmethyl-azepan-4-ylcarbamoyl]-butyl}-amide] | 7.1 nM | 0.77 nM | – | – | – | – | – | –
10 | COc1ccc2oc(C(=O)N[C@@H](CC(C)C)C(=O)N[C@H]3CCCN(S(=O)(=O)c4ccc(Cl)cc4)CC3=O)cc2c1 [Example 132, 5-Methoxy-benzofuran-2-carboxylic acid {(S)-1-[1-(4-chloro-benzenesulfonyl)-3-oxo-azepan-4-ylcarbamoyl]-3-methyl-butyl}-amide] | – | 8.1 nM | 150 nM | 880 nM | – | – | – | –
11 | CC(C)C[C@H](NC(=O)c1cc2ccccc2o1)C(=O)N[C@H]1CCCN(S(=O)(=O)c2ccc(Cl)cc2)CC1=O [Example 131, Benzofuran-2-carboxylic acid {(S)-1-[1-(4-chloro-benzenesulfonyl)-3-oxo-azepan-4-ylcarbamoyl]-3-methyl-butyl}-amide] | – | 11 nM | 75 nM | 300 nM | – | – | – | –
12 | CC(C)C[C@H](NC(=O)c1cc2sccc2s1)C(=O)N[C@H]1C[C@H](C)CN(S(=O)(=O)c2ccccn2)CC1=O [Example 200, Thieno[3,2-]thiophene-2-carboxylic acid {(S)-3-methyl-1-[6-methyl-3-oxo-1-(pyridine-2-sulfonyl)-azepan-4-ylcarbamoyl]-butyl}-amide] | 2.7 nM | 4.7 nM | 63 nM | 65 nM | – | 2.3 nM | 4.1 nM | –
13 | O=C(N[C@@H](Cc1ccc2ccccc2c1)C(=O)NC1CCCN(S(=O)(=O)c2ccccn2)CC1=O)c1cccc2ccccc12 (single isomer, unassigned) [Example 188] | – | 2.8 nM | 24 nM | 22 nM | – | 4 nM | – | –
14 | COc1ccc2oc(C(=O)N[C@@H](CC(C)C)C(=O)N[C@H]3CCCN(S(=O)(=O)c4cccc(Cl)c4)CC3=O)cc2c1 [Example 89, 5-Methoxy-benzofuran-2-carboxylic acid-{(S)-1-[1-(3-chloro-benzenesulfonyl)-3-oxo-azepan-4-ylcarbamoyl]-3-methyl-butyl}-amide] | 11 nM | 24 nM | 34 nM | 130 nM | – | – | – | –
15 | CC(C)C[C@H](NC(=O)c1cc2ccccc2s1)C(=O)NC1CCCN(Cc2ccc3ccccc3n2)CC1=O (stereo partly drawn) [Example 214, Benzo[b]thiophene-2-carboxylic acid {(S)-3-methyl-1-[3-oxo-1-quinolin-2-ylmethyl-azepan-4-ylcarbamoyl]-butyl}-amide] | 7.4 nM | 1 nM | – | – | – | – | – | –
16 | Cc1c(C(=O)N[C@@H](CC(C)C)C(=O)N[C@H]2CCCN(S(=O)(=O)c3cccc(Cl)c3)CC2=O)oc2ccccc12 [Example 90, 3-Methyl-benzofuran-2-carboxylic acid-{(S)-1-[1-(3-chloro-benzenesulfonyl)-3-oxo-azepan-4-ylcarbamoyl]-3-methyl-butyl}-amide] | – | 3.3 nM | 48 nM | 71 nM | – | – | – | –
17 | O=C(N[C@@H](Cc1ccc2ccccc2c1)C(=O)NC1CCCN(S(=O)(=O)c2ccccn2)CC1=O)c1cc2ccccc2o1 (stereo partly drawn) [Example 159, Benzofuran-2-carboxylic acid {(S)-2-naphthalen-2-yl-1-[3-oxo-1-(pyridine-2-sulfonyl)-azepan-4-ylcarbamoyl)-ethyl]-amide] | – | 1.4 nM | – | – | – | 3.4 nM | – | 47 nM
18 | O=C(NC(Cc1ccc2ccccc2c1)C(=O)NC1CCCN(S(=O)(=O)c2ccccn2)CC1=O)c1cccc2cccnc12 [Example 187, Quinoline-8-carboxylic acid {(S)-2-naphthalen-2-yl-1-[3-oxo-1-(pyridine-2-sulfonyl)-azepan-4-ylcarbamoyl]-ethyl}-amide] | 6.8 nM | 2.1 nM | 8.4 nM | – | – | 2.5 nM | – | –
